{"source": "paper PMC10350184", "about": "“Nullomer peptide increases immune cell infiltration and reduces tumor metabolism in triple negative breast cancer mouse model” (Research Square, 2023)", "tested_on": "4T1.2-Luc TNBC tumors", "assay": "4T1.2-Luc orthotopic TNBC mouse model, unilateral tumor: tumor volume, tumor weight and body weight", "type": "in vivo, female BALB/c mice", "conditions": "trehalose IP", "excerpt": "The model was created by orthotopically injecting 4T1.2-Luc cells in the 4th mammary fat pad of Balb/c mice, with 1×10^5 cells per mouse. The cell line was developed by Dr. Cheryl Jorcyk and it expresses luciferase gene which serves as a luminescent indicator of gene expression or tumorigenesis, making the tumor cell traceable in vivo. Treatment started after the formation of palpable tumors and was detected by in vivo BLI (IVIS, Perkin Elmer) followed by randomization of the animals per group. For evaluating the effect of the peptides on this model, we carried out two separate studies. The first pilot study involved a set of 4 mice per group with bilateral mammary tumors, which received six IP administration of PBS, 9S1R-NulloPT drug at 50 mg/kg, 100 mg/Kg body weight or Trehalose, over a period of 2 weeks. The present study includes a set of 7–9 mice per group with unilateral tumors including the same groups as previous, but received a total of eight injections per mouse over a period of 2 weeks. […]\nMice were anesthetized by isoflurane followed by measurement of the tumor length and width using a manual Vernier caliper. This was performed before every drug administration and the tumor volume was calculated using the formula (length × width^2)/2. Body weights were also measured before every dose of the drug.", "data": [{"smiles": "OC[C@H]1O[C@H](O[C@H]2O[C@H](CO)[C@@H](O)[C@H](O)[C@H]2O)[C@H](O)[C@@H](O)[C@@H]1O", "note": "[Trehalose]", "values": [{"measurement": "post mortem tumor size, trehalose only group", "value": "no significant change"}]}]}
